# “And” between values parts separate entries of the source, which are not always exact repeats. Equal entries are not always repeated.
# How the values were obtained:
# [1] = Drug tolerability (body weight) in DD013 dedifferentiated liposarcoma xenograft model; format: in vivo, Athymic nude mice; settings: for BWL % / Mouse body weight, Mean: Doxo (8 mg/kg)
# Protocol: (§1) Experiments were performed with female Athymic nude mice, 9-10 weeks old obtained from Harlan Laboratories (Udine, Italy). They were maintained under Specific Pathogen Free conditions with constant temperature and humidity, according to the institutional guidelines.
# (§2) Tumour growth mice was monitored two/three times a week (depending on tumour growth rate, to avoid unnecessary stress to the animals) by Vernier caliper. Mice were sacrificed when tumour reached a mean weight of 2±0.5 gr. The antitumour activity will be expressed as T/C %, where T and C were the mean tumour weight of treated and control groups, respectively. Mice were monitored daily and weighted at least two times a week. Tolerability was evaluated on the basis of body weight loss (BWL) and clinical observation.
# [2] = test system: DD013 dedifferentiated liposarcoma; assay: Antitumour activity in DD013 dedifferentiated liposarcoma xenograft model; format: in vivo, Athymic nude mice; settings: for DD0113 tumour weight, Mean / DD0113 tumour weight, individual mouse: Doxorubicin 8 mg/kg q7dx2
# Protocol: as §1, §2
# Statistical analysis was performed with GraphPad Prism version 6.01 software (GraphPad software, Inc., La Jolla, CA, USA). ANOVA test was performed to evaluate if there were statistically significant differences between treated and control groups.
# Briefly, xenografts were obtained by transplanting 3-4 mm tumour fragments s.c. in the flanks of mice. The growing tumour masses were measured with the aid of a Vernier caliper, and the tumour weights (TW, 1 mm^3=1 mg) were calculated by the formula: length×(width) 2/2. When tumour load achieved about 200-400 mg, mice were randomized into the experimental groups.
structure (smiles),measurement,setting,value
"COc1cccc2c1C(=O)c1c(O)c3c(c(O)c1C2=O)C[C@@](O)(C(=O)CO)C[C@@H]3O[C@H]1C[C@H](N)[C@H](O)[C@H](C)O1 [Doxorubicin, reference compound]",maximum BWL,"[1]; 8 mg/kg, day 33",5.2%
same,optimal T/C,[2]; 8 mg/kg i.v. q7dx2,34.1%
same,effect on tumour growth,[2]; 8 mg/kg q7dx2,No arrest of tumour growth was observed
same,"DD0113 tumour weight, Mean",[2]; day 23 from inoculum,199.3 mg
same,"DD0113 tumour weight, individual mouse",[2]; day 23 from inoculum,302.2 mg and 277.0 mg and 253.6 mg and 228.6 mg and 196.0 mg and 178.0 mg and 147.0 mg and 114.2 mg and 97.6 mg
same,"DD0113 tumour weight, Mean",[2]; day 26 from inoculum,295.8 mg
same,"DD0113 tumour weight, individual mouse",[2]; day 26 from inoculum,464.9 mg and 410.3 mg and 365.9 mg and 384.0 mg and 308.8 mg and 283.4 mg and 232.9 mg and 87.4 mg
same,"DD0113 tumour weight, Mean",[2]; day 29 from inoculum,336.6 mg
same,"DD0113 tumour weight, individual mouse",[2]; day 29 from inoculum,492.1 mg and 380.4 mg and 478.9 mg and 477.1 mg and 398.0 mg and 313.2 mg and 252.9 mg and 147.9 mg and 89.3 mg
same,"DD0113 tumour weight, Mean",[2]; day 33 from inoculum,409.1 mg
same,"DD0113 tumour weight, individual mouse",[2]; day 33 from inoculum,566.5 mg and 526.0 mg and 691.7 mg and 549.0 mg and 444.0 mg and 344.6 mg and 295.0 mg and 150.3 mg
same,"DD0113 tumour weight, Mean",[2]; day 36 from inoculum,425.8 mg
same,"DD0113 tumour weight, individual mouse",[2]; day 36 from inoculum,549.6 mg and 572.5 mg and 610.4 mg and 519.4 mg and 503.4 mg and 361.9 mg and 345.6 mg and 240.6 mg
same,"DD0113 tumour weight, Mean",[2]; day 40 from inoculum,499.7 mg
same,"DD0113 tumour weight, individual mouse",[2]; day 40 from inoculum,578.4 mg and 652.6 mg and 762.1 mg and 750.9 mg and 531.1 mg and 424.1 mg and 401.6 mg and 244.9 mg and 151.8 mg
same,"DD0113 tumour weight, Mean",[2]; day 43 from inoculum,543.1 mg
same,"DD0113 tumour weight, individual mouse",[2]; day 43 from inoculum,529.7 mg and 810.5 mg and 868.0 mg and 780.2 mg and 575.9 mg and 420.0 mg and 428.4 mg and 263.0 mg and 212.3 mg
same,"DD0113 tumour weight, Mean",[2]; day 47 from inoculum,666.3 mg
same,"DD0113 tumour weight, individual mouse",[2]; day 47 from inoculum,623.2 mg and 800.6 mg and 669.1 mg and 636.6 mg and 529.5 mg and 430.2 mg and 224.5 mg
same,"DD0113 tumour weight, Mean",[2]; day 50 from inoculum,716.0 mg
same,"DD0113 tumour weight, individual mouse",[2]; day 50 from inoculum,561.6 mg and 1194.0 mg and 680.6 mg
same,"DD0113 tumour weight, Mean",[2]; day 54 from inoculum,810.3 mg
same,"DD0113 tumour weight, individual mouse",[2]; day 54 from inoculum,776.7 mg and 1306.3 mg and 1175.7 mg and 807.3 mg
same,"DD0113 tumour weight, Mean",[2]; day 58 from inoculum,958.1 mg
same,"DD0113 tumour weight, individual mouse",[2]; day 58 from inoculum,819.5 mg and 1324.9 mg and 1508.4 mg and 1392.3 mg
same,"DD0113 tumour weight, Mean",[2]; day 62 from inoculum,1128.5 mg
same,"DD0113 tumour weight, individual mouse",[2]; day 62 from inoculum,955.7 mg and 1686.9 mg and 1777.9 mg and 1604.2 mg
same,"DD0113 tumour weight, Mean",[2]; day 65 from inoculum,1312.4 mg
same,"DD0113 tumour weight, individual mouse",[2]; day 65 from inoculum,960.1 mg and 1836.1 mg and 2144.7 mg and 1949.8 mg and 1415.2 mg
same,"DD0113 tumour weight, Mean",[2]; day 69 from inoculum,1491.3 mg
same,"DD0113 tumour weight, individual mouse",[2]; day 69 from inoculum,1238.0 mg and 2045.0 mg and 2383.0 mg and 2019.6 mg and 1526.2 mg
same,"DD0113 tumour weight, Mean",[2]; day 72 from inoculum,1712.4 mg
same,"DD0113 tumour weight, individual mouse",[2]; day 72 from inoculum,1440.5 mg and 2810.6 mg and 2245.9 mg and 1770.1 mg
same,"DD0113 tumour weight, Mean",[2]; day 75 from inoculum,1970.8 mg
same,"DD0113 tumour weight, individual mouse",[2]; day 75 from inoculum,1747.2 mg and 3155.1 mg and 2700.8 mg and 2034.9 mg
COc1cccc2c1C(=O)c1c(O)c3c(c(O)c1C2=O)C[C@@](O)(C(=O)CO)C[C@@H]3O[C@H]1C[C@H](N)[C@H](O)[C@H](C)O1 [Doxo],BWL %,[1]; day 23 from inoculum,0.0%
same,"Mouse body weight, Mean",[1]; day 23 from inoculum,23.7 g
same,BWL %,[1]; day 26 from inoculum,−2.6%
same,"Mouse body weight, Mean",[1]; day 26 from inoculum,23.0 g
same,BWL %,[1]; day 29 from inoculum,−0.3%
same,"Mouse body weight, Mean",[1]; day 29 from inoculum,23.6 g
same,BWL %,[1]; day 33 from inoculum,−5.2%
same,"Mouse body weight, Mean",[1]; day 33 from inoculum,22.4 g
same,BWL %,[1]; day 36 from inoculum,−1.7%
same,"Mouse body weight, Mean",[1]; day 36 from inoculum,23.3 g
same,BWL %,[1]; day 40 from inoculum,0.7%
same,"Mouse body weight, Mean",[1]; day 40 from inoculum,23.8 g
same,BWL %,[1]; day 43 from inoculum,4.0%
same,"Mouse body weight, Mean",[1]; day 43 from inoculum,24.6 g
same,BWL %,[1]; day 47 from inoculum,8.4%
same,"Mouse body weight, Mean",[1]; day 47 from inoculum,25.7 g
same,BWL %,[1]; day 50 from inoculum,5.1%
same,"Mouse body weight, Mean",[1]; day 50 from inoculum,24.9 g
same,BWL %,[1]; day 54 from inoculum,5.5%
same,"Mouse body weight, Mean",[1]; day 54 from inoculum,25.0 g
same,BWL %,[1]; day 58 from inoculum,5.8%
same,"Mouse body weight, Mean",[1]; day 58 from inoculum,25.0 g
same,BWL %,[1]; day 62 from inoculum,8.9%
same,"Mouse body weight, Mean",[1]; day 62 from inoculum,25.8 g
same,BWL %,[1]; day 65 from inoculum,7.4%
same,"Mouse body weight, Mean",[1]; day 65 from inoculum,25.4 g
same,"Mouse body weight, Mean",[1]; day 69 from inoculum,26.6 g
same,BWL %,[1]; day 72 from inoculum,10.0%
same,"Mouse body weight, Mean",[1]; day 72 from inoculum,26.0 g
same,BWL %,[1]; day 75 from inoculum,10.3%
same,"Mouse body weight, Mean",[1]; day 75 from inoculum,26.1 g

# From patent publication US12257237B2 (priority 2017, dated 2025)
